Laboratory results as given in patent US5763430A, “Method of treating a viral infection by administering a steroid compound” (priority 1995, dated 1998).
Converted amounts (≈) assume the structure as drawn.

Experiments:
C. albicans = assay: antibiotic activity (MIC); type: cell-based; details: Candida albicans; C. albicans; read-out: MIC
Source text: (§1) Thus, it is possible to achieve an antimicrobial steroid with or without squalamine-like pharmacological activity.

E. coli = assay: antibiotic activity (MIC); type: cell-based; details: Escherichia coli; E. coli; read-out: MIC
Source text: as §1

P. aerug = assay: antibiotic activity (MIC); type: cell-based; details: P. aerug; read-out: MIC
Source text: as §1

S. aureus = assay: antibiotic activity (MIC); type: cell-based; details: Staphylococcus aureus; S. aureus; read-out: MIC
Source text: as §1

[1] = tested on: stage 59-60 Xenopus tadpole; assay: Xenopus tadpole assay; details: in vivo
[2] = tested on: human microvascular cells; assay: inhibition of endothelial cell cord formation in vitro; type: cell-based; on effect on endothelial cord formation: key: +: Inhibition of angiogenesis; -: No inhibition of angiogenesis; Toxic; *: cell rounding @ 10 µg/ml
Source text: Endothelial cells have the capacity in vitro to form tubular aggregates resembling capillaries in various early stages of formation. This conversion occurs under relatively specific conditions, in which essential growth factors along with an effective substratum are provided. It has been shown that both the interaction of growth factors with the endothelial cell and its attachment to a substratum activate the NHE. The activation of this exchanger is believed to be required for subsequent morphologic transformation of the endothelial cell into a multicellular tubular structure.
To assess the effect of compounds on the cord-like structures formed by human microvascular cells when plated in the presence of VEGF (Vascular Endothelial Growth Factor) and basic fibroblast growth factor on a collagen matrix, a standard cord formation assay was used.

Row | Structure (SMILES) | MIC (C. albicans) [µg/mL] | MIC (E. coli) [µg/mL] | MIC (P. aerug) [µg/mL] | MIC (S. aureus) [µg/mL] | similarity of pharmacologic activity in tadpole assay [1] | effect on endothelial cord formation ([2]; 0.1 μg/ml) | effect on endothelial cord formation ([2]; 1.0 μg/ml) | effect on endothelial cord formation ([2]; 10.0 μg/ml) | minimal effective concentration ([2]; Homo sapiens, Endothelial cell, Table II, read-out: Minimum Effective Concentration, Cord Formation) [µg/mL]
1 | C[C@H](CCC(=O)O)[C@H]1CC[C@H]2[C@@H]3C[C@@H](O)[C@H]4C[C@@H](NCCN)CC[C@]4(C)[C@H]3CC[C@]12C [Compound 433] | > 256 | > 256 | 128 (≈ 294 µM) | > 256 | functionally similar to compound 1437 |  |  |  | 
2 | CC(C)CCC[C@@H](C)[C@H]1CC[C@H]2[C@@H]3CC[C@H]4C[C@H](NCCCNCCCCN)CC[C@]4(C)[C@H]3CC[C@]12C [Compound 304] | 128 (≈ 248 µM) | 128 (≈ 248 µM) | 128 (≈ 248 µM) | 2 to 4 (≈ 3.88 to 7.75 µM) |  |  |  |  | 
3 | CC(C)CCC[C@@H](C)[C@H]1CC[C@H]2[C@@H]3[C@H](O)C[C@H]4C[C@H](NCCCNCCCCN)CC[C@]4(C)[C@H]3CC[C@]12C [Compound 370] | 2 (≈ 3.76 µM) | 32 (≈ 60.2 µM) | 64 (≈ 120 µM) | 4 (≈ 7.52 µM) | pharmacologic activity similar to that seen for FX 3 |  |  |  | 
4 | COC(=O)CC[C@@H](C)[C@H]1CC[C@H]2[C@@H]3[C@H](O)C[C@H]4C[C@@H](NCCCNCCCCN)CC[C@]4(C)[C@H]3CC[C@]12C [Compound 380] | 32 (≈ 59.9 µM) | 32 (≈ 59.9 µM) | 64 (≈ 120 µM) | 4 to 8 (≈ 7.49 to 15 µM) |  |  |  |  | 
5 | CC(C)CCC[C@@H](C)[C@H]1CC[C@H]2[C@@H]3CC[C@H]4C[C@@H](NCCCNCCCCN)CC[C@]4(C)[C@H]3CC[C@]12C [Compound 303] | 256 (≈ 496 µM) | 128 to 256 (≈ 248 to 496 µM) | 128 (≈ 248 µM) | 8 (≈ 15.5 µM) |  |  |  |  | 
6 | COC(=O)CC[C@@H](C)[C@H]1CC[C@H]2[C@@H]3[C@H](O)C[C@H]4CC(NCCCNCCCCNCCCN)CC[C@]4(C)[C@H]3CC[C@]12C (stereo partly shown) [Compound 395] | 64 (≈ 108 µM) | 32 (≈ 54.2 µM) | 64 (≈ 108 µM) | 4 (≈ 6.77 µM) |  |  |  |  | 
7 | COC(=O)CC[C@@H](C)[C@H]1CC[C@H]2[C@@H]3C[C@@H](O)[C@H]4C[C@H](NCCCNCCCCNCCCN)CC[C@]4(C)[C@H]3CC[C@]12C [Compound 465] | 4 (≈ 6.77 µM) | 32 (≈ 54.2 µM) | 128 (≈ 217 µM) | 2 to 4 (≈ 3.38 to 6.77 µM) | pharmacologic activity similar to that seen for FX 3 |  |  |  | 
8 | COC(=O)CC[C@@H](C)[C@H]1CC[C@H]2[C@@H]3[C@H](O)C[C@@H]4C[C@@H](NCCN)CC[C@]4(C)[C@H]3CC[C@]12C [Compound 409] | 16 (≈ 35.7 µM) | 64 (≈ 143 µM) | 128 (≈ 285 µM) | 32 (≈ 71.3 µM) | functionally similar to compound 1437 |  |  |  | 
9 | COC(=O)CC[C@@H](C)[C@H]1CC[C@H]2[C@@H]3[C@H](O)C[C@@H]4C[C@@H](NCCCNCCCCNCCCN)CC[C@]4(C)[C@H]3CC[C@]12C [Compound 411] | 2 (≈ 3.38 µM) | 64 (≈ 108 µM) | 64 (≈ 108 µM) | 8 (≈ 13.5 µM) |  | - | - | + | 10
10 | C[C@H](CCC(=O)O)[C@H]1CC[C@H]2[C@@H]3[C@H](O)C[C@H]4C[C@@H](NCCCNCCCCNCCCN)CC[C@]4(C)[C@H]3CC[C@]12C [Compound 397] | 32 (≈ 55.5 µM) | 32 to 64 (≈ 55.5 to 111 µM) | 16 (≈ 27.7 µM) | 16 (≈ 27.7 µM) |  |  |  |  | 
11 | COC(=O)CC[C@@H](C)[C@H]1CC[C@H]2[C@@H]3[C@H](O)C[C@H]4C[C@H](NCCCNCCCCN)CC[C@]4(C)[C@H]3CC[C@]12C [Compound 394] | 32 (≈ 59.9 µM) | 64 (≈ 120 µM) | 64 (≈ 120 µM) | 4 (≈ 7.49 µM) |  |  |  |  | 
12 | C[C@H](CCC(=O)O)[C@H]1CC[C@H]2[C@@H]3CC[C@H]4C[C@H](NCCCNCCCCN)CC[C@]4(C)[C@H]3CC[C@]12C [Compound 318] | > 256 | 32 (≈ 63.5 µM) | 64 (≈ 127 µM) | 128 (≈ 254 µM) |  |  |  |  | 
13 | C[C@H](CCC(=O)O)[C@H]1CC[C@H]2[C@@H]3CC[C@@H]4C[C@H](NCCCNCCCCNCCCN)CC[C@]4(C)[C@H]3C[C@H](O)[C@]12C [Compound 449] | 4 (≈ 6.93 µM) | 8 to 16 (≈ 13.9 to 27.7 µM) | 4 (≈ 6.93 µM) | 4 (≈ 6.93 µM) |  |  | - |  | 
14 | C=C(C)C(=O)CC[C@@H](C)[C@H]1CC[C@H]2[C@@H]3[C@H](O)C[C@H]4C[C@@H](NCCCNCCCCN)CC[C@]4(C)[C@H]3CC[C@]12C [Compound 1361] | 4 (≈ 7.35 µM) | 32 (≈ 58.8 µM) | 128 (≈ 235 µM) | 4 (≈ 7.35 µM) |  |  |  |  | 
15 | CC(C)CCC[C@@H](C)[C@H]1CC[C@H]2[C@@H]3[C@H](O)C[C@H]4C[C@H](N)CC[C@]4(C)[C@H]3CC[C@]12C [Compound 1363] | 2 (≈ 4.95 µM) | > 256 | > 256 | 2 (≈ 4.95 µM) | potencies comparable to that of Fraction 1 |  |  |  | 
